Results published in patent US9328137B2, “Hydrogel-forming material” (NISSAN CHEMICAL INDUSTRIES, LTD., priority 2011, dated 2016).
Residues, ends and D or L forms follow the SMILES beside them. *: point of attachment. Palmitoyl = CCCCCCCCCCCCCCCC(=O)*

Key:
[1] = Evaluation of solubility of N-palmitoyl-Gly-His with each additive (heating and stirring at 80° C., open system, visual inspection); format: physicochemical; conditions: 0.05% or greater acetic acid, sodium acetate or phosphoric acid, 0.1% disodium hydrogen phosphate or trisodium citrate, 0.5% citric, succinic, tartaric, lactic acid or their sodium salts, 1.0% trimellitic acid or trisodium trimellitate
Description: Next, heating and stirring were performed, with a cap of the screw bottle being open (that is, an open system), in a water bath (NWB-180N, manufactured by Nissinrika K. K.) for 60 minutes at a maximum until a transparent dispersion state was confirmed at 80° C. […] Next, heating and stirring were performed, with a cap of the screw bottle being open, in a water bath (NWB-180N, manufactured by Nissinrika K. K.) for 60 minutes at 80° C.
Next, heating and stirring were performed, with a cap of the screw bottle being open, in a water bath (NWB-180N, manufactured by Nissinrika K. K.) for 60 minutes at a maximum until a transparent dispersion state was confirmed at 80° C.

[2] = Evaluation of hydrogelation ability (overnight cooling at room temperature, inversion of the bottle); format: physicochemical; conditions: same additive amounts as; after stirring at 80° C. in an open system
Description: Next, the solution was allowed to cool at room temperature overnight.

- dissolution in water (summary of Examples 1 to 14, in words) [1]: could be easily dissolved in water
- hydrogel formation (summary of Examples 1 to 14, in words) [2]: a hydrogel could be obtained
Structure (SMILES): CCCCCCCCCCCCCCCC(=O)NCC(=O)N[C@@H](Cc1c[nH]cn1)C(=O)O [N-palmitoyl-Gly-His] (Palmitoyl-Gly-His-OH)
